Measurements from PMC9653409, “Generative deep learning enables the discovery of a potent and selective RIPK1 inhibitor” (Nature Communications, 2022).

Experiments:
Experiment in all cases: Kinase inhibitory activity profiling of RI-962@10 µM (406 kinases, Eurofins)
Type in all cases: biochemical
[1] = target: panel of human kinases (kinase named in endpoint) (Homo sapiens, UniProt O00238); conditions: 10 µM; read-out: Activity (%), ALK6(h)
How it was run: (§1)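 Radiometric filter-binding kinase assays: enzyme preincubated 15 min with compound in 8 mM MOPS pH 7.0, 0.2 mM EDTA, 250 μM peptide substrate, 10 mM magnesium acetate, 10 μM [γ-33P]-ATP. Reaction started with Mg/ATP, run 40 min at room temperature, stopped with phosphoric acid; 33P incorporation read by scintillation counting. Other kinases by similar protocols.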

[2] = target: panel of human kinases (kinase named in endpoint) (Homo sapiens, UniProt O14578); conditions: 10 µM; read-out: Activity (%), CRIK(h)
How it was run: as §1

[3] = target: panel of human kinases (kinase named in endpoint) (Homo sapiens, UniProt O43293); conditions: 10 µM; read-out: Activity (%), ZIPK(h)
How it was run: as §1

[4] = target: panel of human kinases (kinase named in endpoint) (Homo sapiens, UniProt O75747); conditions: 10 µM; read-out: Activity (%), PI3KC2g(h)
How it was run: as §1

[5] = target: panel of human kinases (kinase named in endpoint) (Homo sapiens, UniProt O96017); conditions: 10 µM; read-out: Activity (%), CHK2(h)
How it was run: as §1

[6] = target: panel of human kinases (kinase named in endpoint) (Homo sapiens, UniProt P00533, L858R/T790M); conditions: 10 µM; read-out: Activity (%), EGFR(T790M,L858R)(h)
How it was run: as §1

[7] = target: panel of human kinases (kinase named in endpoint) (Homo sapiens, UniProt P07949, V804L); conditions: 10 µM; read-out: Activity (%), Ret (V804L)(h)
How it was run: as §1

[8] = target: panel of human kinases (kinase named in endpoint) (Homo sapiens, UniProt P0C1S8); conditions: 10 µM; read-out: Activity (%), Wee1B(h)
How it was run: as §1

[9] = target: panel of human kinases (kinase named in endpoint) (Homo sapiens, UniProt P19784); conditions: 10 µM; read-out: Activity (%), CK2α2(h)
How it was run: as §1

[10] = target: panel of human kinases (kinase named in endpoint) (Homo sapiens, UniProt P24723); conditions: 10 µM; read-out: Activity (%), PKCη(h)
How it was run: as §1

[11] = target: panel of human kinases (kinase named in endpoint) (Homo sapiens, UniProt P37023); conditions: 10 µM; read-out: Activity (%), ALK1(h)
How it was run: as §1

[12] = target: panel of human kinases (kinase named in endpoint) (Homo sapiens, UniProt P53779); conditions: 10 µM; read-out: Activity (%), JNK3(h)
How it was run: as §1

[13] = target: panel of human kinases (kinase named in endpoint) (Homo sapiens, UniProt P54753); conditions: 10 µM; read-out: Activity (%), EphB3(h)
How it was run: as §1

[14] = target: panel of human kinases (kinase named in endpoint) (Homo sapiens, UniProt P54756); conditions: 10 µM; read-out: Activity (%), EphA5(h)
How it was run: as §1

[15] = target: panel of human kinases (kinase named in endpoint) (Homo sapiens, UniProt Q02763, R849W); conditions: 10 µM; read-out: Activity (%), Tie2(R849W)(h)
How it was run: as §1

[16] = target: panel of human kinases (kinase named in endpoint) (Homo sapiens, UniProt Q06418); conditions: 10 µM; read-out: Activity (%), Rse(h)
How it was run: as §1

[17] = target: panel of human kinases (kinase named in endpoint) (Homo sapiens, UniProt Q5TCY1); conditions: 10 µM; read-out: Activity (%), TTBK1(h)
How it was run: as §1

[18] = target: panel of human kinases (kinase named in endpoint) (Homo sapiens, UniProt Q6DT37); conditions: 10 µM; read-out: Activity (%), MRCKγ(h)
How it was run: as §1

[19] = target: panel of human kinases (kinase named in endpoint) (Homo sapiens, UniProt Q92519); conditions: 10 µM; read-out: Activity (%), TRB2(h)
How it was run: as §1

[20] = target: panel of human kinases (kinase named in endpoint) (Homo sapiens, UniProt Q96SB4); conditions: 10 µM; read-out: Activity (%), SRPK1(h)
How it was run: as §1

[21] = target: panel of human kinases (kinase named in endpoint) (Homo sapiens, UniProt Q9BXA7); conditions: 10 µM; read-out: Activity (%), TSSK1(h)
How it was run: as §1

[22] = target: panel of human kinases (kinase named in endpoint) (Homo sapiens, UniProt Q9C098); conditions: 10 µM; read-out: Activity (%), DCAMKL3(h)
How it was run: as §1

[23] = target: panel of human kinases (kinase named in endpoint) (Homo sapiens, UniProt Q9H1R3); conditions: 10 µM; read-out: Activity (%), MYLK2(h)
How it was run: as §1

[24] = target: panel of human kinases (kinase named in endpoint) (Homo sapiens, UniProt Q9H4B4); conditions: 10 µM; read-out: Activity (%), Plk3(h)
How it was run: as §1

[25] = target: panel of human kinases (kinase named in endpoint) (Homo sapiens, UniProt Q9UQB9); conditions: 10 µM; read-out: Activity (%), Aurora-C(h)
How it was run: as §1

panel of human kinases (kinase named in endpoint) (Homo sapiens, UniProt Q9BXA7), sequence (Q9BXA7 whole entry): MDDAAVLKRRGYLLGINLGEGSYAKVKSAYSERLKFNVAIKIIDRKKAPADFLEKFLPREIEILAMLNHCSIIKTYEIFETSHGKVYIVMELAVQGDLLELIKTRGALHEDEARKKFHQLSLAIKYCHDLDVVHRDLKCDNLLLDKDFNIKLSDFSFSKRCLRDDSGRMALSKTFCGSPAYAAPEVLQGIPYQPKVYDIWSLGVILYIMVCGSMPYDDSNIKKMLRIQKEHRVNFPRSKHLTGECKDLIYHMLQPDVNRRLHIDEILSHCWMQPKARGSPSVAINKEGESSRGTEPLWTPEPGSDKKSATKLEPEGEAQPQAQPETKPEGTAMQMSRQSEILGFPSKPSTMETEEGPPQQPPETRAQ
panel of human kinases (kinase named in endpoint) (Homo sapiens, UniProt O00238), sequence (O00238 14-502): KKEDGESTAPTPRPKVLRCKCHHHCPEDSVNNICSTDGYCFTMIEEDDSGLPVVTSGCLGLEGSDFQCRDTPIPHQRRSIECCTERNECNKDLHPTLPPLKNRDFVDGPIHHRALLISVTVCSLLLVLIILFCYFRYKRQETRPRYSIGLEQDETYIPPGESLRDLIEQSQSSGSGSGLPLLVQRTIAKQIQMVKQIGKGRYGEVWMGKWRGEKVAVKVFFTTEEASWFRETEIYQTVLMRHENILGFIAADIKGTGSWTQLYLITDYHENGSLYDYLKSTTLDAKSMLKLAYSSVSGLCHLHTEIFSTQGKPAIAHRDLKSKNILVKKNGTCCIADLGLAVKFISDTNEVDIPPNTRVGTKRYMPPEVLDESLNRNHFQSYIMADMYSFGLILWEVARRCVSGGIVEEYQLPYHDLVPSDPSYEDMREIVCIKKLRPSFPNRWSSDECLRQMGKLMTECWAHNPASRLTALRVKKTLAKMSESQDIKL
panel of human kinases (kinase named in endpoint) (Homo sapiens, UniProt Q9C098), sequence (Q9C098 whole entry): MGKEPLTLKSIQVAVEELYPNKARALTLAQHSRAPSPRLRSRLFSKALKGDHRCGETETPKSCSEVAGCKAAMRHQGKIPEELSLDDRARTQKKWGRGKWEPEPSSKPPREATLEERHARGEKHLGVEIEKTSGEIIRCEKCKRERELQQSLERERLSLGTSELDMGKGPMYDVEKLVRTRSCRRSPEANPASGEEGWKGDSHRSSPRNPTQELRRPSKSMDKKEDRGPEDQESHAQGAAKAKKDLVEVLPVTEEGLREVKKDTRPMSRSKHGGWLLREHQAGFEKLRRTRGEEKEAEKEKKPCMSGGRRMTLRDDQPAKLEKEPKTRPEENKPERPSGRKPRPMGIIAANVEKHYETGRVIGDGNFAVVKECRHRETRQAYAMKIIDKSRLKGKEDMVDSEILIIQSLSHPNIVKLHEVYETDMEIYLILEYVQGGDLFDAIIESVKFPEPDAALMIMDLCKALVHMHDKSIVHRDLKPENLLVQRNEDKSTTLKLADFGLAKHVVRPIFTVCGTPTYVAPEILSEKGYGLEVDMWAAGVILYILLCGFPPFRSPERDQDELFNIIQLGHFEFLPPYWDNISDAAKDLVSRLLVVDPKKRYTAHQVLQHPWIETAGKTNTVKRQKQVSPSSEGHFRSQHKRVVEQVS
panel of human kinases (kinase named in endpoint) (Homo sapiens, UniProt Q96SB4), sequence (Q96SB4 whole entry): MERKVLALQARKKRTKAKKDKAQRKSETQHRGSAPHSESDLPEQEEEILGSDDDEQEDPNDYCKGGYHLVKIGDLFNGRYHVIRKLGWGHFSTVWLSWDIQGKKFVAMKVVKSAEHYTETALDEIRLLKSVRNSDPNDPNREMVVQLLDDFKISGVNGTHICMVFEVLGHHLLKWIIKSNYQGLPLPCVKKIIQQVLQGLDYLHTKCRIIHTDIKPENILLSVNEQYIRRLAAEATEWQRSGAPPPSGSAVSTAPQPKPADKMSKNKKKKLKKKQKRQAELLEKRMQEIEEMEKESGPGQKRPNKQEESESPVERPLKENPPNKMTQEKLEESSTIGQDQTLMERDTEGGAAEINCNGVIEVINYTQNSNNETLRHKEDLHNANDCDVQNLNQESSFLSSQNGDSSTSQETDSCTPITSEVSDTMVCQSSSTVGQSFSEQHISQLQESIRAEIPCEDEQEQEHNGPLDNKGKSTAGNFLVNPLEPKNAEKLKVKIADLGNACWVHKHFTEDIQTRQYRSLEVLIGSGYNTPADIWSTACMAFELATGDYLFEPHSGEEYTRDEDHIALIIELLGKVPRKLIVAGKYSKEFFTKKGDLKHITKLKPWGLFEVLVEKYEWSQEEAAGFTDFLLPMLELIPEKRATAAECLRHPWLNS
panel of human kinases (kinase named in endpoint) (Homo sapiens, UniProt O96017), sequence (O96017 whole entry): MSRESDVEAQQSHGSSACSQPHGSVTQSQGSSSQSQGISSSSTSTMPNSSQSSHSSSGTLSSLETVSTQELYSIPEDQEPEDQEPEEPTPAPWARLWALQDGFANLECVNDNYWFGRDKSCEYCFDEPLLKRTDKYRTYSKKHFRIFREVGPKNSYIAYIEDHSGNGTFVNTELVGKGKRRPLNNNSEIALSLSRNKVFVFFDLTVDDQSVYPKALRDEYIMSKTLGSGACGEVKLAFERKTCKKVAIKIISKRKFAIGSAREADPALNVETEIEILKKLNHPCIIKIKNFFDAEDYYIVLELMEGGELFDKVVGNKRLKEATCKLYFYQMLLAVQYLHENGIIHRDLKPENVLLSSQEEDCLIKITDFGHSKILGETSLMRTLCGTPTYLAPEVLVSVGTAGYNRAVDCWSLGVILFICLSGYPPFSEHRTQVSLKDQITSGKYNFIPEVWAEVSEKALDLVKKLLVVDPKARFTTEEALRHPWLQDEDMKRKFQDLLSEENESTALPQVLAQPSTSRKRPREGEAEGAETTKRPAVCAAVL
panel of human kinases (kinase named in endpoint) (Homo sapiens, UniProt P37023), sequence (P37023 22-503): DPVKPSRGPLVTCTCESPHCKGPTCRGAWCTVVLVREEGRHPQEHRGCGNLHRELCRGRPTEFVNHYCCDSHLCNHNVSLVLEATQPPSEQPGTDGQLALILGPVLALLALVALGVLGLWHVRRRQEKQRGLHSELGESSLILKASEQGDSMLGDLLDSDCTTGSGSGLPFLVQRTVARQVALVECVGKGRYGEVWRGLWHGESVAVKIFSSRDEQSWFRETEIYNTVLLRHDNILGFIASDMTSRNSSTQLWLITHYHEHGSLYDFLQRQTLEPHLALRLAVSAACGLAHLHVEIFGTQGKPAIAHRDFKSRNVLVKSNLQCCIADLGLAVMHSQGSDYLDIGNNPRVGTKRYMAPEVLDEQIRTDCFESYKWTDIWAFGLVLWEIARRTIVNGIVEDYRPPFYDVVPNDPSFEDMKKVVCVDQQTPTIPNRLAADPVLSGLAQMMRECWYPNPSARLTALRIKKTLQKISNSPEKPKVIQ
panel of human kinases (kinase named in endpoint) (Homo sapiens, UniProt Q92519), sequence (Q92519 whole entry): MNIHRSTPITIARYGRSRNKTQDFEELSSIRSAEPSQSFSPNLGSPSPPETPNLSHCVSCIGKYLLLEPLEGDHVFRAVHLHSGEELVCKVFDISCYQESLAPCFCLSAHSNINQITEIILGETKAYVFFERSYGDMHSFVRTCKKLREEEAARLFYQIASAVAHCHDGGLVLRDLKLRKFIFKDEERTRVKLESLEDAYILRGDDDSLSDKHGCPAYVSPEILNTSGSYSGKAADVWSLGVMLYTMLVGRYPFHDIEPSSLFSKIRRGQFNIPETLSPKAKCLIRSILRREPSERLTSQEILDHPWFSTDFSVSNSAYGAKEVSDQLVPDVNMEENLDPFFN
panel of human kinases (kinase named in endpoint) (Homo sapiens, UniProt P19784), sequence (P19784 whole entry): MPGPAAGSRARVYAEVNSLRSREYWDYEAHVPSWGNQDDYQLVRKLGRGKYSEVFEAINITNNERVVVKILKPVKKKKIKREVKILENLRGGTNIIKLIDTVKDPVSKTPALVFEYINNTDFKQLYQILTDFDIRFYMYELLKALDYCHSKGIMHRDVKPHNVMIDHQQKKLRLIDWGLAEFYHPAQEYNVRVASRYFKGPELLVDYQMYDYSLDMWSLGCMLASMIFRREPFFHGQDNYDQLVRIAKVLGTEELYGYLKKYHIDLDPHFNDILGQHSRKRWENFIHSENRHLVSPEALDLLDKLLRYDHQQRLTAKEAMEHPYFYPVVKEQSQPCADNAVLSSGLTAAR
panel of human kinases (kinase named in endpoint) (Homo sapiens, UniProt Q9UQB9), sequence (Q9UQB9 whole entry): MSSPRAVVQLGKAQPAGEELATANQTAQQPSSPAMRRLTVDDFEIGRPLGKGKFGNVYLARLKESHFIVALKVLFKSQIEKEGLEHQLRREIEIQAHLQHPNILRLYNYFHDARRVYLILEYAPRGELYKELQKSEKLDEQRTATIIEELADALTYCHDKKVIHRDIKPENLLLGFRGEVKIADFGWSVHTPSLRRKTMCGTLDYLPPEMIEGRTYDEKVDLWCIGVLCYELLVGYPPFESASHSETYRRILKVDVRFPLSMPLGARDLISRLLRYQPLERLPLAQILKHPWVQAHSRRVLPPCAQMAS
panel of human kinases (kinase named in endpoint) (Homo sapiens, UniProt Q9H1R3), sequence (Q9H1R3 whole entry): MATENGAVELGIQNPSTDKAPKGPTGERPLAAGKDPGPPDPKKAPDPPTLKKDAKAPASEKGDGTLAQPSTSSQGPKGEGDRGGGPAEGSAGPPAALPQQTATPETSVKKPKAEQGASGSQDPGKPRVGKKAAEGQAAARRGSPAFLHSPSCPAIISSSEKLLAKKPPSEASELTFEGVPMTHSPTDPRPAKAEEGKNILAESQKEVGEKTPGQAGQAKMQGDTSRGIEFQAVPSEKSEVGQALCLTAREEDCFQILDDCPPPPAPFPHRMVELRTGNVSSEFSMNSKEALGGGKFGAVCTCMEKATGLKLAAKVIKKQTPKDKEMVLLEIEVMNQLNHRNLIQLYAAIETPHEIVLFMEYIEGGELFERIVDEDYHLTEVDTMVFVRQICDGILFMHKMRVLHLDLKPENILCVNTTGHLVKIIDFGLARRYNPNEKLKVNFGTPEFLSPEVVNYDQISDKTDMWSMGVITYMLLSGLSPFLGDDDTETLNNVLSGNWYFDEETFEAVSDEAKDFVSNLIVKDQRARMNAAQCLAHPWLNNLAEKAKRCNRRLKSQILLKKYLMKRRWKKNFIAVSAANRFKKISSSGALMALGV

`CC(C)C(=O)Nc1nc2cc(-c3ccc4c(c3)c(C(=O)NC(C)c3ccccc3)cn4C)ccn2n1` (stereo not shown) [RI-962] was tested, and the activity at 10 µM [1] was 95%, the activity at 10 µM [2] was 101% and the activity at 10 µM [3] was 102%. It also gave an activity at 10 µM [4] of 99%, an activity at 10 µM [5] of 98% and an activity at 10 µM [6] of 85%. The activity at 10 µM [7] was 103%, the activity at 10 µM [8] was 95% and the activity at 10 µM [9] was 85%. The activity at 10 µM [10] was 99%, the activity at 10 µM [11] was 94% and the activity at 10 µM [12] was 56%. The activity at 10 µM [13] was 77%, the activity at 10 µM [14] was 93% and the activity at 10 µM [15] was 109%. It also gave an activity at 10 µM [16] of 108%, an activity at 10 µM [17] of 92% and an activity at 10 µM [18] of 83%. It also gave an activity at 10 µM [19] of 91%, an activity at 10 µM [20] of 102% and an activity at 10 µM [21] of 84%. The activity at 10 µM [22] was 100%, the activity at 10 µM [23] was 86% and the activity at 10 µM [24] was 88%. It also gave an activity at 10 µM [25] of 95%.
